Laboratory results from patent EP0409227A2, “Pyrimidine nucleosides, their preparation and pharmaceutical preparations” (MATTHES, Eckart, Dr., priority 1989, dated 1991).
Like-named read-outs stand apart in the source and are kept apart here.

Columns and labels:
[1] = system: MT4 Zellen; experiment: Cytotoxicity: inhibition of proliferation of MT4 cells; type: cell-based
Description: Unter dem Aspekt einer möglichen Anwendung der Verbindungen am Menschen wurden ihre antiproliferativen Wirkungen an menschlichen Zellkulturen wie früher beschrieben getestet (E. Matthes et al. Biochem.Biophys.Res.Commun. 153, 825 (1988)). Dabei zeigte sich, daß z.B. 2′,3′-Didesoxy-3-fluor-5-methylcytidin gegenüber der T-Zellinie MT4 eine CD₅₀ von 190 µM aufweist. In einem weiteren Test, in dem eine mögliche Wachstumshemmung koloniebildender Zellen des Knochenmarks der Maus (CFU-GM) untersucht wurde (E. Matthes et al. Biochem.Biophys.Res.Commun. 165, 488 (1989), erwies sich diese Verbindung ebenfalls als kaum proliferationshemmend (CD₅₀ > 500 µM). Die Wirkung weiterer Verbindungen auf die Proliferation von MT4-Zellen ist in Tabelle 3 zusammengefaßt. Tabelle 3

[2] = molecular target: T1, HBV-Polymerase (Hepatitis B virus genotype D subtype ayw, UniProt P03156); experiment: Inhibition of HBV polymerase activity by nucleoside triphosphate analogues (method of Kaplan et al.); type: biochemical; settings: 50 % inhibition of HBV polymerase activity; 3 h incubation at 37 °C; read-out: ID₅₀
T1 construct: Es wurde zunächst die Hemmbarkeit der HBV-assoziierten Polymerase; host or cells: virus-associated endogenous polymerase
T1 sequence (P03156 whole entry): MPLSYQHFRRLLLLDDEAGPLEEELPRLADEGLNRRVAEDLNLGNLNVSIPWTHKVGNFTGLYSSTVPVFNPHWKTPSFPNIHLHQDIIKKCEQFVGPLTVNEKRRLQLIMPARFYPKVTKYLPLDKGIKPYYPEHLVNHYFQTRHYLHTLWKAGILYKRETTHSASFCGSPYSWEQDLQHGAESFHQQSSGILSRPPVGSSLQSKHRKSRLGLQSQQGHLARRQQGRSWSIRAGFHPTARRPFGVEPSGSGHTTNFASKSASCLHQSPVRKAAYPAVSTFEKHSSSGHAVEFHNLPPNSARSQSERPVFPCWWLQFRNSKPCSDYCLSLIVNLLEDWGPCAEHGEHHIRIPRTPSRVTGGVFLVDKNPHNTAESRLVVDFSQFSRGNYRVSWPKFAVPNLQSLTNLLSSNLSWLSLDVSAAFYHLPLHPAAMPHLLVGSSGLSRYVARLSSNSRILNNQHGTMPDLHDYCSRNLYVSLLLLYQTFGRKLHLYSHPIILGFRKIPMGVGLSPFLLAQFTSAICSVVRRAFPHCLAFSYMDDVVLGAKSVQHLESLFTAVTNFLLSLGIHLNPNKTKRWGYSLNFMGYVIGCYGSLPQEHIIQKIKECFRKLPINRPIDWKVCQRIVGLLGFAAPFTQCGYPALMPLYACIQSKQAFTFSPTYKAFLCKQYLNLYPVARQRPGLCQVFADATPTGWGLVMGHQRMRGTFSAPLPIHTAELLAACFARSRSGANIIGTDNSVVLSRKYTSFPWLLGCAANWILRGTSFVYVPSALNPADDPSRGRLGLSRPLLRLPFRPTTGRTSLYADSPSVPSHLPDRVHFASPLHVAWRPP
Source text: Das Hepatitis B Virus (HBV) besitzt eine zirkuläre, partiell doppelsträngige DNA, welche nach Infektion einer Leberzelle durch eine viruseigene Polymerase repliziert wird. Dieser Vorgang setzt jedoch die Synthese einer RNA durch eine zelluläre RNA-Polymerase voraus. Nur diese RNA-Matrize - im Zusammenhang mit der Replikation auch als Prägenom bezeichnet - kann von der HBV-Polymerase für die Synthese zunächst eines RNA-DNA Hybrids und dann der doppelsträngigen DNA benutzt werden. Damit verfügt die HBV-Polymerase über eine enzymatische Aktivität, die der einer reversen Transcriptase ähnelt (Will et al., J.Virology 61, 904 (1987)). Es wurde zunächst die Hemmbarkeit der HBV-assoziierten Polymerase durch die 5′-Triphosphate der erfindungsgemäßen Verbindungen untersucht. Dazu wurde die von Kaplan et al. (J.Virology 12, 995 (1973)) angegebene Methode zur Bestimmung der HBV-Polymerase benutzt, wobei die zu testenden Triphosphate den Ansätzen in verschiedenen Konzentrationen zugesetzt wurden. Die Hemmung der Enzymreaktion wurde nach 3-stündiger Inkubation bei 37 °C durch Vergleich mit einem Kontrollwert ermittelt und daraus die Konzentration der zugesetzten Analoga bestimmt, die zu einer 50 %igen Hemmung der HBV-Polymerase-Aktivität führt (ID₅₀). Tabelle 1 zeigt die Ergebnisse, wobei insbesondere 2′,3′-Didesoxy-3′-fluor-5-methylcytidin durch einen Wert ID₅₀ von 0,03 µM herausragt und damit zu den stärksten bisher bekannten Hemmstoffen der HBV-Polymerase zu rechnen ist. Tabelle 1

[3] = molecular target: T2, DNA-Polymerase-alpha (Homo sapiens, UniProt P09884); experiment: Effect of modified nucleoside triphosphates on cellular DNA polymerase alpha; type: biochemical; settings: read-out: ID₅₀ (µM) DNA-Polymerase- alpha
T2 construct: Die Isolierung der Enzyme und deren Aktivitätsbestimmung erfolgte entsprechend der Methode von Matthes et al; from tissue
T2 sequence (P09884 1-1462): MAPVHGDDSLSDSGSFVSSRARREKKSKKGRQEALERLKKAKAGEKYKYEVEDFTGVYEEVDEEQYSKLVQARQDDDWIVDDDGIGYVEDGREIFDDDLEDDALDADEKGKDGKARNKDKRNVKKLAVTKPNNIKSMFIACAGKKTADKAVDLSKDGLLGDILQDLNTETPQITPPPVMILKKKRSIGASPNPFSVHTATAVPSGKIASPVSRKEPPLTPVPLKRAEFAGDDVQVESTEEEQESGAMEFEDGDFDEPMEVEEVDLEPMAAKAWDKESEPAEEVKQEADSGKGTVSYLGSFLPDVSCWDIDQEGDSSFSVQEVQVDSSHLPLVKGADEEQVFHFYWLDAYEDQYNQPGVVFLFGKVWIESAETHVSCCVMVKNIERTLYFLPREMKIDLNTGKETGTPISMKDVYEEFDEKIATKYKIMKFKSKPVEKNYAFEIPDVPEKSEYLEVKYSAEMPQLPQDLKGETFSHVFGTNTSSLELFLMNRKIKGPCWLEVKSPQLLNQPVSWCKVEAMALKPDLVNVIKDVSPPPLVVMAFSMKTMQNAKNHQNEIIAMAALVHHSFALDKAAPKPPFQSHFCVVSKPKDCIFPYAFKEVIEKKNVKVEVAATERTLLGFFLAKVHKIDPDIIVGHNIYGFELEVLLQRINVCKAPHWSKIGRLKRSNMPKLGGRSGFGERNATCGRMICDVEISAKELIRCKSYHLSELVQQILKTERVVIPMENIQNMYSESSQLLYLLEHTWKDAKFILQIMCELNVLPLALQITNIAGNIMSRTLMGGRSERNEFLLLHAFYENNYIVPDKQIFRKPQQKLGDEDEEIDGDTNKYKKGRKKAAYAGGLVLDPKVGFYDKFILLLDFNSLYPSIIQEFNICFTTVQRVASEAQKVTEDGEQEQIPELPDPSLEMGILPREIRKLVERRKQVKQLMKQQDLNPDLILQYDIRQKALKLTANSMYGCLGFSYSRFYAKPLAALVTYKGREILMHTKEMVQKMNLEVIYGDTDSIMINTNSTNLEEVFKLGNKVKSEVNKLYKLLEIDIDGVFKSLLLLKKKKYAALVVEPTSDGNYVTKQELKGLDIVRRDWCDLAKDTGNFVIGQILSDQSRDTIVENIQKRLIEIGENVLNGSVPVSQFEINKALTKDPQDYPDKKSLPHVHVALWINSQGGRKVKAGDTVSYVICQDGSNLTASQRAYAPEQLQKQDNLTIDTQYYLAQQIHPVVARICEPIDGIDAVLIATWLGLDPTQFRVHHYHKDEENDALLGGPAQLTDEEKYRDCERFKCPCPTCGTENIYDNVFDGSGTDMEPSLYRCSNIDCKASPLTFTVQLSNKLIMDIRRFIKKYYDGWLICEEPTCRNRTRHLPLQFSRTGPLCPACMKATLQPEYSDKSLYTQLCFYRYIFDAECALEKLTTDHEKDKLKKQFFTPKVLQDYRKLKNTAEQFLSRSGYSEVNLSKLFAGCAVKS
Source text: (§1) Um zu prüfen, inwieweit die beschriebene Wirkung auf die HBV-Polymerase selektiv ist, d.h., die zellulären DNA-Polymerasen von einer Hemmung durch die erfindungsgemäßen Nucleosidtriphosphate ausgenommen sind, wurden die zellulären DNA-Polymerasen-alpha und -beta in die Untersuchungen einbezogen. Die Isolierung der Enzyme und deren Aktivitätsbestimmung erfolgte entsprechend der Methode von Matthes et al. (Biomed.Biochim.Acta 44, K63-K73 (1985)). Die Ergebnisse der Tabelle 2 zeigen, daß die für die Replikation der zellulären DNA zuständige DNA-Polymerase alpha weitgehend unbeeinflußt bleibt. Eine 50 %ige Hemmung dieses Enzyms wird mit Ausnahme auch bei Hemmstoffkonzentrationen >100 µM noch nicht erreicht, so daß die DNA-Polymerase-alpha diesen Verbindungen gegenüber als nahezu resistent anzusehen ist. Für die DNA-Polymerase-beta, die als Reparaturenzym zellulärer DNA-Schäden angesehen wird, liegen die ID₅₀- Werte zwischen 1 und >200 µM. Damit besitzt die beschriebene Verbindung eine hohe Wirkungsspezifität. Tabelle 2

[4] = molecular target: T3, DNA-Polymerase-beta (Homo sapiens, UniProt P06746); experiment: Effect of modified nucleoside triphosphates on cellular DNA polymerase beta; type: biochemical; settings: read-out: ID₅₀ (µM) DNA-Polymerase- beta
T3 construct: Die Isolierung der Enzyme und deren Aktivitätsbestimmung erfolgte entsprechend der Methode von Matthes et al; from tissue
Source text: as §1

Row | SMILES | CD₅₀ [1] [µM] | IC50 [2] [µM] | IC50 [3] [µM] | IC50 [4] [µM] | CD₅₀ ([1]; human, 48 h) [µM]
1 | Nc1nc2c(ncn2[C@H]2C[C@H](F)[C@@H](CO)O2)c(=O)[nH]1 [2′,3′-Didesoxy-3′-fluorguanosin] | 250 | – | – | – | –
2 | CCc1cn([C@H]2C[C@H](F)[C@@H](COP(=O)(O)OP(=O)(O)OP(=O)(O)O)O2)c(=O)nc1N [FEtdCTP, 2′,3′-Didesoxy-3′-fluor-5-ethylcytidin-5′-triphosphat] | – | 0.35 | > 200 | 3 | –
3 | Cc1cn([C@H]2C[C@H](N=[N+]=[N-])[C@@H](COP(=O)(O)OP(=O)(O)OP(=O)(O)O)O2)c(=O)nc1N [N₃MetdCTP, 2′,3′-Didesoxy-3′-azido-5-methylcytidin-5′-triphosphat] | – | 0.12 | > 200 | > 200 | –
4 | Cc1cn([C@H]2CC[C@@H](CO)O2)c(=O)nc1N [2′,3′-Didesoxy-5-methylcytidin] | – | – | – | – | 110
5 | Cc1cn([C@H]2C[C@H](N)[C@@H](COP(=O)(O)OP(=O)(O)OP(=O)(O)O)O2)c(=O)nc1N [NH₂MetdCTP, 2′,3′-Didesoxy-3′-amino-5-methylcytidin-5′-triphosphat] | – | 26 | > 200 | > 200 | –
6 | Nc1nc2c(ncn2[C@H]2C[C@H](N)[C@@H](CO)O2)c(=O)[nH]1 [2′,3′-Didesoxy-3′-aminoguanosin] | – | – | – | – | 210
7 | Cc1cn([C@H]2C[C@H](N=[N+]=[N-])[C@@H](CO)O2)c(=O)nc1N [2′,3′-Didesoxy-3′-azido-5-methylcytidin] | – | – | – | – | > 500
8 | Nc1ncnc2c1ncn2[C@H]1C=C[C@@H](COP(=O)(O)OP(=O)(O)OP(=O)(O)O)O1 [ddeATP, 2′,3′-Didehydro-2′,3′-didesoxyadenosin-5′-triphosphat] | – | 1.8 | > 100 | 4.5 | –
9 | Cc1cn([C@H]2C[C@H](Cl)[C@@H](COP(=O)(O)OP(=O)(O)OP(=O)(O)O)O2)c(=O)nc1N [ClMetdCTP, 2′,3′-Didesoxy-3′chlor-5-methylcytidin-5′-triphosphat] | – | 9 | > 200 | 100 | –
10 | Nc1ccn([C@H]2C=C[C@@H](COP(=O)(O)OP(=O)(O)OP(=O)(O)O)O2)c(=O)n1 [ddeCTP, 2′,3′-Didehydro-2′,3′-didesoxycytidin-5′-triphosphat] | – | 2.5 | > 200 | 6 | –
11 | Cc1cn([C@H]2C[C@H](F)[C@@H](COP(=O)(O)OP(=O)(O)OP(=O)(O)O)O2)c(=O)nc1N [FMetdCTP, 2′,3′-Didesoxy-3′-fluor-5-methylcytidin-5′-triphosphat] | – | 0.03 | > 200 | 1 | –
12 | Cc1cn([C@H]2C=C[C@@H](COP(=O)(O)OP(=O)(O)OP(=O)(O)O)O2)c(=O)nc1N [ddeMetCTP, 2′,3′-Didehydro-2′,3′-didesoxy-5-methylcytidin-5′-triphosphat] | – | 0.28 | > 200 | 10 | –
13 | Nc1nc2c(ncn2[C@H]2C=C[C@@H](CO)O2)c(=O)[nH]1 [2′,3′-Didehydro-2′,3′-didesoxyguanosin] | – | – | – | – | 155
14 | Cc1cn([C@H]2CC[C@@H](COP(=O)(O)OP(=O)(O)OP(=O)(O)O)O2)c(=O)nc1N [ddMetCTP, 2′,3′-Didesoxy-5-methylcytidin-5′-triphosphat] | – | 8 | > 200 | > 100 | –
15 | Nc1nc2c(ncn2[C@H]2C=C[C@@H](COP(=O)(O)OP(=O)(O)OP(=O)(O)O)O2)c(=O)[nH]1 [ddeGTP, 2′,3′-Didehydro-2′,3′-didesoxyguanosin-5′-triphosphat] | – | 1.6 | > 150 | 5 | –
16 | Cc1cn([C@H]2C=C[C@@H](CO)O2)c(=O)nc1N [2′,3′-Didehydro-2′,3′-didesoxy-5-methylcytidin] | – | – | – | – | 205
17 | Nc1nc2c(ncn2[C@H]2C[C@H](F)[C@@H](COP(=O)(O)OP(=O)(O)OP(=O)(O)O)O2)c(=O)[nH]1 [FdGTP, 2′,3′-Didesoxy-3′-fluorguanosin-5′-triphosphat] | – | 0.15 | > 200 | 1.8 | –
